Reference: paper PMC5939191 (Chemical Science, 2018)
Counter-ions that a name gives are not always drawn.

Assay: Apparent aqueous solubility by the dissolution method
Settings: water; for solubility: 22 °C, thermodynamic from solid

Row | Structure (SMILES) | solubility (unusually high) | solubility [mg/mL]
1 | CCCC[N+]1(C)[C@@H]2C[C@@H](OC(=O)[C@H](CO)c3ccccc3)C[C@H]1[C@@H]1O[C@@H]12 (stereo partly drawn) [[Bs]Br, Butyl scopolammonium bromide] | more than one gram per milliliter | 1800 ± 200
2 | O=c1n(CCCN2CCN(c3cccc(Cl)c3)CC2)nc2ccccn12 [[TrH]Cl, Trazodone hydrochloride] |  | 38.5 ± 0.2
